Data: patent US5763430A, “Method of treating a viral infection by administering a steroid compound” (priority 1995, dated 1998)
≈ marks a conversion by molar mass, not a printed value.

Experiments:
Type in all cases: cell-based
[1] = tested on: Murine B16 melanoma; test: growth inhibition in vitro; details: except at very high concentrations
From the text: As set forth in Table 7 below, all malignant tumors evaluated in tissue culture, endothelial cells and vascular smooth muscle cells were sensitive to inhibition. Thus, compound 1436 has application in the control of growth factor dependent proliferation of many types of tissue.

[2] = tested on: C. albicans; test: antibiotic activity (MIC); details: Candida albicans; C. albicans; read-out: MIC
From the text: (§1) Thus, it is possible to achieve an antimicrobial steroid with or without squalamine-like pharmacological activity.

[3] = tested on: P. aerug; test: antibiotic activity (MIC); details: P. aerug; read-out: MIC
From the text: as §1

[4] = tested on: S. aureus; test: antibiotic activity (MIC); details: Staphylococcus aureus; S. aureus; read-out: MIC
From the text: as §1

[5] = tested on: E. coli; test: antibiotic activity (MIC); details: Escherichia coli; E. coli; read-out: MIC
From the text: as §1

[6] = tested on: human coronary artery smooth muscle; test: proliferation of human coronary artery smooth muscle in vitro; details: FIG. 15
From the text: Aminosterols of the invention may also have utility in inhibiting the growth factor mediated proliferation of smooth muscle within the artery. Following coronary angioplasty, reocclusion commonly occurs, secondary to reparative proliferation of the vascular smooth muscle within the wall of the surgically manipulated blood vessel. This process generally takes place over the course of 7-10 days. To evaluate whether an agent could prevent the growth factor mediated proliferation of smooth muscle within the artery, compound 1436 was evaluated in vitro for its effect on the proliferation of human coronary artery smooth muscle. Results for compound 1436 are shown in FIG. 13, and those for squalamine are shown in FIG. 14, with FIG. 15 being a composite logarithmic plot.

What does the source list for `CC(C)[C@@H](CC[C@@H](C)[C@H]1CC[C@H]2[C@@H]3[C@H](O)C[C@H]4C[C@@H](NCCCNCCCCN)CC[C@]4(C)[C@H]3CC[C@]12C)OS(=O)(=O)O` [Compound 1256]?
cytostatic activity against B16 in culture [1]: minimal cytostatic activity; MIC [2]: 8 µg/mL (≈ 12.7 µM); MIC [3]: 16 µg/mL (≈ 25.5 µM); MIC [4]: 0.5 to 1 µg/mL (≈ 0.796 to 1.59 µM); MIC [5]: 2 to 4 µg/mL (≈ 3.18 to 6.37 µM); growth of human coronary artery smooth muscle [6]: suppress in vitro the growth
